From patent US12303490B2, “Compositions and methods for suppressing and/or treating neurodegenerative diseases and/or a clinical condition thereof” (CK Regeon Inc., priority 2019, dated 2025)
Blank lines part the entries; values can stand above or below the compound they belong to.

Tests used:
[1] = system: CXXC5-DVL interaction; assay: In vitro CXXC5-DVL PPI inhibition (binding) assay, library screening; conditions: compound 30 μM; FITC-tagged PTD-DBMP and DVL-PDZ domain; fluorescence intensity
Experimental: Screening for compounds that inhibit the CXXC5-DVL interaction. […] CELL. DEATH. DIFFER. […] Briefly, 5 mg/ml purified DVL-PDZ domain was incubated in each well of a 96-well Maxibinding Immunoplate (SPL, Seoul, Korea) at 4° C. for 16 h. After the addition of 10 μM FITC-tagged PTD-DBMP to each well, each compound in the chemical library or control (DMSO) was treated to the well at a final concentration of 30 μM. The fluorescence intensity was measured using a Fluorstar Optima microplate reader (BGM Lab Technologie, Ortenberg, Germany) and normalized as follows: “(‘compounds-treated group’−‘blank’)/(‘DMSO-treated control’−‘blank’)*100”.

[2] = system: β-catenin, CXXC5 and p-GSK3β (S9) in H4/SWE cells; assay: Western blot assay in H4/SWE cells; type: cell-based; conditions: FIG. 9A
Experimental: Western blot assay. H4 and H4/SWE Cells were ground with a mortar and pestle before lysis in RIPA buffer (150 mM NaCl, 10 mM Tris, pH 7.2, 0.1% SDS, 1.0% Triton X-100, 1% sodium deoxycholate, and 5 mM EDTA). Samples were separated on 6-12% SDS polyacrylamide gels and transferred onto PROTRAN nitrocellulose membranes (Schleicher and Schuell Co.). The membranes were blocked with PBS containing 5% non-fat dry skim milk and 0.07% (vol/vol) Tween 20 and incubated with antibody specific for β-catenin (1:1,000, Santa Cruz Biotechnology, Inc.), CXXC5 (1:500, Santa Cruz Biotechnology, Inc.), p-GSK3β(S9) (1:500, Santa Cruz Biotechnology, Inc.). The membranes were then incubated with horseradish peroxidase-conjugated anti-rabbit (1:5,000, Bio-Rad Laboratories) or anti-mouse (1:5000, Cell Signaling Technology) IgG secondary antibody. Protein bands were visualized with enhanced chemiluminescence (GE Healthcare) using a luminescent image analyzer, LAS-3000 (Fujifilm). Western blot bands were analyzed using Multi-Gauge V3.0 software (Fujifilm).

[3] = system: Wnt/β-catenin pathway; assay: pTOPFlash reporter assay in HEK293 cells; conditions: HEK293 cells harboring the pTOPFlash reporter
[4] = system: serum active GLP-1; assay: Serum active GLP-1 in NASH mouse models (STZ-induced, MCD-induced); type: in vivo, mice; conditions: FIG. 6A-6B
Experimental: FIG. 6A. Graph illustrating the serum active GLP-1 levels in NCD-mice (“Chow”) and RFD-fed, STZ-induced NASH mice that were treated with vehicle, A3334, A3051, selonsertib, and ocaliva.
FIG. 6B. Graph illustrating the serum active GLP-1 levels in NCD-mice (“Chow”) and RFD-fed, methionine-choline deficient diet (MCD)-induced NASH mice that were treated with vehicle, A3334, A3051, selonsertib, ocaliva (“OCA”), and A3486.
(§1) Blood chemistry. Total blood of mice was collected by cardiac puncture. The blood was allowed to clot for 30 min and was then centrifuged for 30 min at 3,000×g to obtain supernatant to measure active GLP-1 concentration. ELISA assay kits were used to assess serum active GLP-1 (7-36).

[5] = system: secreted human amyloid β-42 in H4/SWE cells; assay: Human Aβ42 ELISA assay in H4/SWE cells; type: cell-based; conditions: 24 h, FIG. 10
Experimental: Human Aβ42 ELISA assay. H4 or H4/SWE cells were cultured in Dulbecco's Modified Eagle's Medium (DMEM, Gibco) containing 10% fetal bovine serum (FBS) and grown to confluence in a 5% CO2 and 95% air humidified atmosphere. The cells were seeded in 6-well plate in DMEM supplemented with 10% FBS and allowed to adhere overnight. The cells were treated with each compound (1˜20 uM) for 24 h and collected in 1 ml of medium. The samples were treated with protease inhibitor cocktail (PIC) to avoid the degradation of Amyloid β by protease and centrifuged at 3000 rpm for 3 min. Experiments were performed according to the guidance of Human Aβ42 ELISA Kit protocol (Invitrogen). The amount of secreted Amyloid β was normalized by measuring total protein concentration.

[6] = system: serum active GLP-1; assay: Serum active GLP-1 ELISA in HFD-mice; type: in vivo; conditions: compared with mice fed on NCD, FIG. 4A
Experimental: as §1
(§2) Animals. The generation of Cxxc5^−/− mice has been described previously. Cxxc5 heterozygous mice were intercrossed for four generations to obtain littermate wild-type and Cxxc5^−/− mice and were maintained on a C57BL/6 background. Six-week-old Cxxc5^+/+ and Cxxc5^−/− mice were fed HFD for 8 weeks. Wild-type male C57BL/6 mice (KOATECH, Seoul, Korea) were fed HFD consisting of 60% calories from fat (Research Diet, D12492) for 8 weeks. To validate that the insulin resistance mouse model was successfully established, fasting glucose levels were assessed with a One Touch Ultra glucometer (LifeScan). Subsequently, each HFD-fed mouse with a fasting glucose level higher than 16.7 mmol/L was orally administered A3334 (25 mg kg^−1), sitagliptin (50 mg kg^−1), or metformin (100 mg kg^−1) each day for 5 days at weeks 8 and 12. After the removal of the drugs, mice were maintained for 3 weeks on the HFD. To monitor pancreas regeneration, six-week-old Cxxc5^+/+ and Cxxc5^−/− mice were fed an HFD as above. […]

[7] = system: GLP-1 and other Wnt/β-catenin signaling target genes (Tcf712, Axin2, Dvl1, Wisp1, Fosl1); assay: qPCR of GLP-1 and other Wnt/β-catenin signaling target genes in epiWAT of HFD-mice; type: in vivo; conditions: phenotypes as observed in HFD-fed Cxxc5−/− mice, FIG. 2C
Experimental: Quantitative real-time polymerase chain reaction (PCR). Total RNA was extracted from ground tissue powder using TRIzol reagent (Invitrogen) according to the manufacturer's instructions. Reverse transcription was performed with M-MLV reverse transcriptase (Invitrogen) using 2 μg of total RNA. Synthesized cDNA was diluted to a concentration of 100 ng/μl. Quantitative PCR analyses were performed in the Rotor-gene Q real-time PCR cycler (Qiagen) using SYBR green reagent (Qiagen) with conditions of 95° C. for 10 min followed by 40 cycles at 95° C. for 5 s and 60° C. for 15 s. Relative quantification of mRNA levels was estimated using the comparative Ct method (ΔΔCt). Glp-1 mRNA values were normalized with respect to GAPDH.
Animals. The generation of Cxxc5^−/− mice has been described previously. Cxxc5 heterozygous mice were intercrossed for four generations to obtain littermate wild-type and Cxxc5^−/− mice and were maintained on a C57BL/6 background. Six-week-old Cxxc5^+/+ and Cxxc5^−/− mice were fed HFD for 8 weeks. Wild-type male C57BL/6 mice (KOATECH, Seoul, Korea) were fed HFD consisting of 60% calories from fat (Research Diet, D12492) for 8 weeks. To validate that the insulin resistance mouse model was successfully established, fasting glucose levels were assessed with a One Touch Ultra glucometer (LifeScan). […]

[8] = system: serum active GLP-1; assay: Serum active GLP-1 ELISA in HFD-fed, STZ-induced diabetes mice; type: in vivo
Experimental: as §1, §2

[9] = system: β-catenin in H4/SWE cells; assay: Immunocytochemical analysis of β-catenin in H4/SWE cells; type: cell-based; conditions: FIG. 9B
Experimental: Immunocytochemical analysis. H4 or H4/SWE cells treated with each compound were washed with PBS and fixed in 4% (wt/vol) paraformaldehyde (PFA) in PBS for 15 min at room temperature. The cells were then washed with PBS and permeabilized with 0.1% (vol/vol) Triton X-100 in PBS for 15 min. After washing with PBS, the cells were incubated with 10% bovine serum albumin (BSA) in PBS for 30 min and then with antibodies specific for β-catenin (1:100; BD) overnight at 4° C. The cells were washed in PBS and incubated with Alexa Fluor 488—conjugated IgG secondary antibody (1:400; Molecular Probes) at room temperature for 1 h. Cell nuclei were counterstained with DAPI for 10 min and the stained samples were examined under a LSM510 META microscope.

[10] = system: rat neuronal stem cells (NSCs); assay: Neural stem cell (NSC) differentiation, cell morphology; type: cell-based; conditions: 0, 1, 5 and 10 μM; 24 hours; medium with bFGF
Experimental: Neural stem cell (NSCs) culture. NSCs were extracted from the forebrain of E14.5 rats and maintained in an undifferentiated state by culturing in medium containing 10 ng/ml of bFGF (Peprotech). Undifferentiated NSCs (1×10^5) were treated with of each compound (10 μM) and cell morphology was assessed by capturing black and white images of the cells after 24 h.
Referring now to FIG. 7A-7B, NSCs were isolated form E14 mice embryos, and maintained in the maintenance medium (supplemented) with bFGF and EGF. The neuronal differentiation was induced by treating different concentrations of A3051. Cell morphologies were captured at 24 hours after treatment of the indirubin analog 3051 using a bright-field optical microscope.

CXXC5-DVL inhibitory activity (%) [1]: 58.24%
Structure (SMILES): CCN(CC)S(=O)(=O)c1ccc(OC)c(Nc2cc(-c3ccccc3)nc(C)n2)c1 [Compound 6]

CXXC5-DVL inhibitory activity (%) [1]: 90.87%
Structure (SMILES): COc1ccc(C2CC(=O)C3=C(C2)Nc2onc(C)c2C3c2ccc(O)c(O)c2)cc1OC (stereo not shown) [Compound 7]

p-GSK3β (S9) (western blot) [2]: increased
Structure (SMILES): O=C1Nc2ccccc2/C1=C1/Nc2ccccc2C1=O [Indirubin, reference compound]
level of β-catenin (western blot) [2]: restored

CXXC5-DVL inhibitory activity (%) [1]: 85.22%
Structure (SMILES): CC(N)(Cc1ccc(O)c(O)c1)C(=O)O (stereo not shown) [Compound 14]

CXXC5-DVL inhibitory activity (%) [1]: 90.48%
Structure (SMILES): O=C(O)C1Sc2[nH]c(=O)sc2C2c3cc(Br)cc(Br)c3OC(=O)C12 (stereo not shown) [Compound 5]

CXXC5-DVL inhibitory activity (%) [1]: 87.58%
Structure (SMILES): COC(=O)C1=C(C)N/C(=C/c2cc(C)n(-c3ccccc3F)c2C)C1=O [Compound 4]

Structure (SMILES): CN(C)c1ccc(O)c2c1C[C@H]1C[C@H]3[C@H](N(C)C)C(O)=C(C(N)=O)C(=O)[C@@]3(O)C(O)=C1C2=O.Cl [Compound 16]
CXXC5-DVL inhibitory activity (%) [1]: 87.9%

CXXC5-DVL inhibitory activity (%) [1]: 89%
p-GSK3β (S9) (western blot) [2]: increased
Structure (SMILES): O=C1Nc2ccccc2/C1=C1/Nc2ccccc2/C1=N\O [Compound 12, Indirubin-3′-oxime, reference compound]
activation of Wnt/β-catenin pathway (reporter assay) [3]: showed effectiveness
level of β-catenin (western blot) [2]: restored

Structure (SMILES): O=C1Nc2cc(Br)ccc2/C1=C1/Nc2ccccc2/C1=N\O [Compound 8, 6-Bromoindirubin-3′-oxime, reference compound]
activation of Wnt/β-catenin pathway (reporter assay) [3]: showed effectiveness
level of β-catenin (western blot) [2]: restored
p-GSK3β (S9) (western blot) [2]: increased

Structure (SMILES): Cc1cc(F)c(C(=O)Nc2cccc(-c3nncn3C(C)C)n2)cc1-n1cnc(C2CC2)c1 [selonsertib, reference compound]
active GLP-1 expression in blood serum [4]: did not have any effect

p-GSK3β (S9) (western blot) [2]: increased
Structure (SMILES): COc1ccc2c(c1)/C(=C1/Nc3ccccc3/C1=N\O)C(=O)N2 [Compound A3334, 5-Methoxyindirubin-3′-oxime]
secretion of Aβ-42 [5]: inhibited
serum active GLP-1 levels [6]: restored
relative expression levels of GLP-1 and other Wnt/β-catenin signaling target genes in epiWAT [7]: restored the phenotypes
serum active GLP-1 levels ([8]; STZ-induced diabetic HFD-mice, compared with mice fed on NCD, FIG. 4B): restored
active GLP-1 expression in blood serum compared to the sitagliptin treatment ([8]; compared to the effect of sitagliptin (positive control)): significantly rescued (increased)
nuclear translocation of β-catenin [9]: increased
level of CXXC5 (western blot) [2]: decreased
level of β-catenin (western blot) [2]: restored
active GLP-1 expression in blood serum [4]: significantly rescued (increased)

CXXC5-DVL inhibitory activity (%) [1]: 85.22%
Structure (SMILES): O=c1c(O)c(-c2cc(O)c(O)c(O)c2)oc2cc(O)cc(O)c12 [Compound 13]

Structure (SMILES): N[C@@H](CC(=O)N1CCn2c(nnc2C(F)(F)F)C1)Cc1cc(F)c(F)cc1F [sitagliptin, reference compound]
relative expression levels of GLP-1 and other Wnt/β-catenin signaling target genes in epiWAT [7]: did not

Structure (SMILES): NC(Cc1cc(O)c(O)cc1O)C(=O)O (stereo not shown) [Compound 10]
CXXC5-DVL inhibitory activity (%) [1]: 90.32%

CXXC5-DVL inhibitory activity (%) [1]: 86.81%
Structure (SMILES): Cl.O=C(OCCN1CCOCC1)C1(c2ccccc2)CCCCC1 [Compound 18]

CXXC5-DVL inhibitory activity (%) [1]: 85.25%
Structure (SMILES): Oc1cc(O)cc(/C=C/c2ccc(O)c(O)c2)c1 [Compound 17]

CXXC5-DVL inhibitory activity (%) [1]: 90.05%
Structure (SMILES): O=c1cc(O)cc(/C=C/c2ccc(O)c(O)c2)o1 [Compound 11]

CXXC5-DVL inhibitory activity (%) [1]: 90.63%
Structure (SMILES): COc1ccc(C2CC(C(F)(F)F)n3ncc(C(=O)O)c3N2)cc1OC (stereo not shown) [Compound 2]

CXXC5-DVL inhibitory activity (%) [1]: 88.19%
Structure (SMILES): Cc1cc(C)c2c(O)nc(SCC(=O)c3ccc(O)c(O)c3)nc2n1 [Compound 3]

Structure (SMILES): Br.CN1CCc2cc(O)cc3c2[C@H]1Cc1ccc(O)c(O)c1-3 [Compound 9]
CXXC5-DVL inhibitory activity (%) [1]: 89.41%

CXXC5-DVL inhibitory activity (%) [1]: 85.41%
Structure (SMILES): O=c1c(O)c(-c2ccc(O)cc2O)oc2cc(O)cc(O)c12 [Compound 15]

p-GSK3β (S9) (western blot) [2]: increased
Structure (SMILES): CO/N=C1/C(=C2/C(=O)Nc3cc(Cl)c(Cl)cc32)Nc2ccccc21 [Compound A3051, 5,6-dichloroindirubin-3′-methoxime]
secretion of Aβ-42 [5]: inhibited
nuclear translocation of β-catenin [9]: increased
level of CXXC5 (western blot) [2]: decreased
level of β-catenin (western blot) [2]: restored
neural differentiation of NSCs (cell morphology) [10]: induced neural differentiation
active GLP-1 expression in blood serum [4]: significantly rescued (increased)
